# Experimental data as given in ChEMBL document CHEMBL1145893, “Three-dimensional quantitative structure-activity relationship analysis of propafenone-type multidrug resistance modulators: influence of variable selection on test set predictivity” (J Med Chem, 2003).
# System: CCRF-CEM/VCR-1000
# Experiment: In vitro multi drug resistance (MDR) reversal inhibitory activity against CCRF-CEM/VCR-1000 cell line
# Format: functional, cell-based
# Conditions: Homo sapiens
row,SMILES,IC50 [nM]
1,CCCNCC(O)c1oc2ccccc2c1CC (stereo not given),439000
2,CCCNCCc1oc2ccccc2c1CCc1ccccc1,8560
3,CC(=O)c1ccccc1OCC(O)CN1CCN(c2ccc(F)cc2)CC1 (stereo not given),3840
4,CCC(=O)c1ccccc1OCC(O)CN1CCOCC1 (stereo not given),207000
5,COc1ccccc1N1CCN(CC(=O)c2oc3ccccc3c2CCc2ccccc2)CC1,16600
6,CC(C)NCCc1oc2ccccc2c1CCc1ccccc1,20200
7,O=C(CCc1ccccc1)c1ccc(OCC(O)CN2CCOCC2)cc1 (stereo not given),6860
8,O=C(CCc1ccccc1)c1cccc(OCC(O)CN2CCN(c3ccc(F)cc3)CC2)c1 (stereo not given),1120
9,O=C(CCc1ccccc1)c1cccc(OCC(O)CN2CCCCC2)c1 (stereo not given),390
10,COC(CCc1ccccc1)c1ccccc1OCC(O)CN(C(C)C)C(C)C (stereo not given),660
11,COC(CCc1ccccc1)c1ccccc1OCC(O)CN1CCN(c2ccc(F)cc2)CC1 (stereo not given),230
12,COC(CCc1ccccc1)c1ccccc1OCC(O)CN1CCCCC1 (stereo not given),770
13,CC(=O)c1ccc(OCC(O)CN2CCN(c3ccc(F)cc3)CC2)cc1 (stereo not given),11900
14,CC(=O)c1ccc(OCC(O)CN2CCOCC2)cc1 (stereo not given),302000
15,OC(COc1ccccc1C(O)CCc1ccccc1)CN1CCN(c2ccc(F)cc2)CC1 (stereo not given),670
16,O=C(CCc1ccccc1)c1ccc(OCC(O)CN2CCCCC2)cc1 (stereo not given),1360
17,CC(C)N(CC(O)COc1ccc(C(=O)CCc2ccccc2)cc1)C(C)C (stereo not given),920
18,CCC(=O)c1ccccc1OCC(O)CN1CCCCC1 (stereo not given),6840
19,O=C(CCc1ccccc1)c1cc(O)ccc1OCC(O)CN1CCN(Cc2ccccc2)CC1 (stereo not given),530
20,COC(CCc1ccccc1)c1ccccc1OCC(O)CN1CCOCC1 (stereo not given),1800
21,CC(=O)c1ccc(OCC(O)CN2CCCCC2)cc1 (stereo not given),75900
22,CC(=O)c1ccccc1OCC(O)CN1CCC(O)(c2ccccc2)CC1 (stereo not given),2830

row,SMILES,IC50 [nM]
1,O=C(CCc1ccccc1)c1cc(O)ccc1OCC(O)CN1CCCCC1 (stereo not given),2300
2,O=C(CCc1ccccc1)c1ccc(OCC(O)CN2CCN(c3ccc(F)cc3)CC2)cc1 (stereo not given),2530
3,O=C(c1ccccc1)c1ccccc1OCC(O)CN1CCC(O)(c2ccccc2)CC1 (stereo not given),190
4,O=C(c1ccccc1)c1ccccc1OCC(O)CN1CCN(c2ccc(F)cc2)CC1 (stereo not given),420
5,CC(=O)c1cccc(OCC(O)CN2CCN(c3ccc(F)cc3)CC2)c1 (stereo not given),11400
6,CC(C)N(CC(O)COc1ccc(O)cc1C(=O)CCc1ccccc1)C(C)C (stereo not given),1040
7,CC(=O)c1cccc(OCC(O)CN2CCOCC2)c1 (stereo not given),118000
8,O=C(CCc1ccccc1)c1ccccc1OCC(O)CN1CCCCC1 (stereo not given),680
9,O=C(CCc1ccccc1)c1cc(OCc2ccccc2)ccc1OCC(O)CN1CCCCC1 (stereo not given),170
10,O=C(CCc1ccccc1)c1ccccc1OCC(O)CN1CCC(O)(c2ccccc2)CC1 (stereo not given),70
11,CC(C)N(CC(O)COc1ccc(OCc2ccccc2)cc1C(=O)CCc1ccccc1)C(C)C (stereo not given),80
12,CC(C)N(CC(O)COc1ccccc1C(O)CCc1ccccc1)C(C)C (stereo not given),1740
13,CC(=O)c1cccc(OCC(O)CN2CCCCC2)c1 (stereo not given),9070
14,COc1ccccc1N1CCN(CC(O)c2oc3ccccc3c2CCc2ccccc2)CC1 (stereo not given),880
15,OC(COc1ccccc1C(O)CCc1ccccc1)CN1CCCCC1 (stereo not given),1340
16,OC(COc1ccccc1C(O)CCc1ccccc1)CN1CCOCC1 (stereo not given),9540
17,CCC(=O)c1ccccc1OCC(O)CN1CCC(O)(c2ccccc2)CC1 (stereo not given),300
18,CCCNCC(O)c1oc2ccccc2c1CCc1ccccc1 (stereo not given),58100
19,O=C(CCc1ccccc1)c1ccccc1OCC(O)CN1CCOCC1 (stereo not given),3750
20,O=C(CCc1ccccc1)c1ccccc1OCC(O)CN1CCCC1 (stereo not given),1820
21,CC(C)N(CC(O)COc1ccccc1C(=O)CCc1ccccc1)C(C)C (stereo not given),310

# Next, values leading:
row,IC50 [nM],SMILES
1,2640,CN(C)CC(O)COc1ccccc1C(=O)CCc1ccccc1 (stereo not given)
2,120,O=C(CCc1ccccc1)c1cc(OCc2ccccc2)ccc1OCC(O)CN1CCN(Cc2ccccc2)CC1 (stereo not given)
3,760,O=C(CCc1ccccc1)c1ccccc1OCC(O)CNCc1ccccc1 (stereo not given)
4,90,O=C(CCc1ccccc1)c1ccccc1OCC(O)CNCC(c1ccccc1)c1ccccc1 (stereo not given)
5,340,O=C(CCc1ccccc1)c1ccccc1OCC(O)CNC1CCCCC1 (stereo not given)
6,120,COc1cccc(N2CCN(CC(O)COc3ccccc3C(=O)CCc3ccccc3)CC2)c1 (stereo not given)
7,70,O=C(CCc1cccc2ccccc12)c1ccccc1OCC(O)CN1CCC(O)(c2ccccc2)CC1 (stereo not given)
8,750,COC(CCc1ccccc1)c1ccccc1OCC(O)CNCCC(c1ccccc1)c1ccccc1 (stereo not given)
9,210,O=C(CCc1ccccc1)c1ccccc1OCC(O)CN1CCN(c2ccccc2)CC1 (stereo not given)
10,2530,COC(=O)c1ccc(NCC(O)COc2ccccc2C(=O)CCc2ccccc2)cc1 (stereo not given)
11,110,CCCNCC(O)COc1ccc(OCc2ccccc2)cc1C(=O)CCc1ccccc1 (stereo not given)
12,720,O=C(CCc1cccc2ccccc12)c1ccccc1OCC(O)CNCCC(c1ccccc1)c1ccccc1 (stereo not given)
13,6470,O=C(CCc1ccccc1)c1ccccc1OCC(O)CNc1ccccc1 (stereo not given)
14,140,O=C(CCc1ccccc1)c1ccccc1OCC(O)CN1CCN(c2ccc(F)cc2)CC1 (stereo not given)
15,170,O=C(CCc1cccc2ccccc12)c1ccccc1OCC(O)CN1CCCCC1 (stereo not given)
16,720,O=C(CCc1ccccc1)c1ccccc1OCC(O)CNCCC(c1ccccc1)c1ccccc1 (stereo not given)
17,380,O=C(CCc1ccccc1)c1ccccc1OCC(O)CN1CCN(Cc2ccccc2)CC1 (stereo not given)
18,540,CC(C)N(CC(O)COc1ccccc1C(=O)CCc1cccc2ccccc12)C(C)C (stereo not given)
19,110,COc1ccccc1N1CCN(CC(O)COc2ccccc2C(=O)CCc2ccccc2)CC1 (stereo not given)
20,1020,O=C(CCc1ccccc1)c1ccccc1OCC(O)CNC(c1ccccc1)c1ccccc1 (stereo not given)
21,490,CCCN(C)CC(O)COc1ccccc1C(=O)CCc1ccccc1 (stereo not given)
22,680,O=C(CCc1cccc2ccccc12)c1ccccc1OCC(O)CN1CCOCC1 (stereo not given)
23,910,CCN(CC)CC(O)COc1ccccc1C(=O)CCc1ccccc1 (stereo not given)
24,180,COc1ccc(N2CCN(CC(O)COc3ccccc3C(=O)CCc3ccccc3)CC2)cc1 (stereo not given)
25,50,Cc1ccccc1N1CCN(CC(O)COc2ccccc2C(=O)CCc2ccccc2)CC1 (stereo not given)
26,3020,CCCNCC(O)COc1ccc(O)cc1C(=O)CCc1ccccc1 (stereo not given) [5-HYDROXY PROPAFENONE]
27,1080,CCCNCC(O)COc1ccccc1C(=O)CCc1ccccc1 (stereo not given) [PROPAFENONE]
